Calls of active or inactive are those of the source. No cut-off for these calls is given here.
Experiments:
[1] = molecular target: Mitogen-activated protein kinase kinase kinase 1 (Homo sapiens, UniProt Q13233); assay: Inhibition of recombinant human N-terminal 4xFLAG-tagged/C-terminal His8 fused MAP3K1 C-terminal domain (M1193 to W1512 residues) expressed in Sf9 insect cells using Bio-RS-Peptide as substrate measured after 60 mins in presence of [gamma-33P]-ATP by scintillation counting method
[2] = molecular target: Mitogen-activated protein kinase 7 (Homo sapiens, UniProt Q13164); assay: Inhibition of recombinant human N-terminal FLAG-tagged/C-terminal His8 fused ERK5 internal fragment domain (L5 to Q397 residues) expressed in Sf9 insect ells using RBER-CHKtide as substrate measured after 60 mins in presence of [gamma-33P]-ATP by scintillation counting method
[3] = molecular target: Fibroblast growth factor receptor 4 (Homo sapiens, UniProt P22455); assay: Inhibition of recombinant human N-terminal GST-His6-fused FGFR4 (R391 to T802 residues) expressed in baculovirus infected Sf9 cells using Poly(Glu:Tyr)4:1 as substrate measured after 60 mins in presence of [gamma-33P]-ATP by scintillation counting method
[4] = molecular target: Dual specificity mitogen-activated protein kinase kinase 2 (Homo sapiens, UniProt P36507); assay: Inhibition of recombinant human MEK2 measured after 60 mins in presence of [gamma-33P]-ATP by scintillation counting method
[5] = molecular target: T1, RAC-beta serine/threonine-protein kinase (Homo sapiens, UniProt P31751); assay: Inhibition of recombinant human full-length N-terminal GST-His6-fused AKT2 (M1 to E481 residues) expressed in Sf9 insect cells using GSK3-derived peptide as substrate measured after 60 mins in presence of [gamma-33P]-ATP by scintillation counting method
HeLa [6] = assay: Induction of apoptosis in human HeLa cells assessed as effect on PARP level at 0.1 to 0.6 uM after 24 hrs by FACS analysis; format: functional, cell-based
[7] = molecular target: Mitogen-activated protein kinase 15 (Homo sapiens, UniProt Q8TD08); assay: Inhibition of recombinant human N-terminal 4xFLAG-tagged/C-terminal His8-fused ERK7 N-terminal domain (M1 to R354 residues) expressed in Sf9 insect cells using RBER-CHKtide as substrate measured after 60 mins in presence of [gamma-33P]-ATP by scintillation counting method
[8] = molecular target: 3-phosphoinositide-dependent protein kinase 1 (Homo sapiens, UniProt O15530); assay: Inhibition of recombinant human N-terminal His6-fused PDK1 (M1 to M460 residues) expressed in Sf9 insect cells using tetra(LRRWSLG) peptide as substrate measured after 60 mins in presence of [gamma-33P]-ATP by scintillation counting method
MCF7 = assay: Antiproliferative activity against human MCF7 cells assessed as decrease in cell viability measured after 72 hrs by MTT assay; format: functional, cell-based; settings: MCF7, 72 h
HeLa [9] = assay: Inhibition of ERK phosphorylation in human HeLa cells at 0.1 to 0.6 uM after 24 hrs by FACS analysis; format: cell-based
IEC-6 [10] = assay: Cytotoxicity against rat IEC-6 cells assessed as reduction in cell viability measured after 24 to 72 hrs by MTT assay; format: cell-based; settings: Rattus norvegicus, IEC-6
SRSF protein kinase 1 = SRSF protein kinase 1 (Homo sapiens, UniProt Q96SB4); assay: Inhibition of recombinant human full-length N-terminal GST-His6-fused SRPK1 (M1 to S655 residues) expressed in Sf9 insect cells using RS-peptide as substrate measured after 60 mins in presence of [gamma-33P]-ATP by scintillation counting method
Focal adhesion kinase 1 = Focal adhesion kinase 1 (Homo sapiens, UniProt Q05397); assay: Inhibition of recombinant human N-terminal GST-fused FAK (2 to 1052 residues) expressed in Sf9 insect cells using Poly(Glu/Tyr)4:1 as substrate measured after 60 mins in presence of [gamma-33P]-ATP by scintillation counting method
[11] = molecular target: T1, RAC-beta serine/threonine-protein kinase; assay: Inhibition of recombinant human N-terminal GST-His6-fused AKT2 C-terminal domain (A107 to E481 residues) expressed in Sf9 insect cells using GSK3(14-27)tide as substrate measured after 60 mins in presence of [gamma-33P]-ATP by scintillation counting method
HeLa [12] = assay: Cell cycle arrest in human HeLa cells assessed as decrease in accumulation at G2-phase at 0.1 to 0.6 uM after 24 hrs by propidium iodide staining-based FACS analysis; format: functional
[13] = molecular target: Casein kinase II subunit alpha (Homo sapiens, UniProt P68400); assay: Inhibition of recombinant human full-length N-terminal GST-fused CK2-alpha1 (M1 to Q391 residues) expressed in Sf9 insect cells using casein as substrate measured after 60 mins in presence of [gamma-33P]-ATP by scintillation counting method
HeLa [14] = assay: Induction of apoptosis in human HeLa cells assessed as increase in caspase 3 level at 0.1 to 0.6 uM after 24 hrs by FACS analysis; format: functional, cell-based
IEC-6 [15] = assay: Cell cycle arrest in rat IEC-6 cells assessed as accumulation at G0/G1-phase at 0.1 to 0.6 uM after 24 hrs by propidium iodide staining-based FACS analysis; format: ADME; settings: iec-6, 24 h
[16] = molecular target: Platelet-derived growth factor receptor alpha (Homo sapiens, UniProt P16234); assay: Inhibition of recombinant human wild-type N-terminal GST-His6-fused PDGFR-alpha C-terminal domain (Q551 to L1089 residues) expressed in Sf9 insect cells using TRK-C derived peptide as substrate measured after 60 mins in presence of [gamma-33P]-ATP by scintillation counting method
[17] = molecular target: Proto-oncogene tyrosine-protein kinase Src (Homo sapiens, UniProt P12931); assay: Inhibition of recombinant human full-length N-terminal GST-His6-fused SRC (M1 to L536 residues) expressed in Sf9 insect cells using Poly(Glu:Tyr)4:1 as substrate measured after 60 mins in presence of [gamma-33P]-ATP by scintillation counting method
Wee1-like protein kinase = Wee1-like protein kinase (Homo sapiens, UniProt P30291); assay: Inhibition of recombinant human N-terminal GST-His6-fused WEE1 C-terminal domain (Q36 to Y432 residues) expressed in Sf9 cells using Poly(Ala,Glu,Lys,Tyr)6:2:5:1 as substrate measured after 60 mins in presence of [gamma-33P]-ATP by scintillation counting method
[18] = molecular target: Mitogen-activated protein kinase kinase kinase 10 (Homo sapiens, UniProt Q02779); assay: Inhibition of recombinant human MAP3K10 measured after 60 mins in presence of [gamma-33P]-ATP by scintillation counting method
[19] = molecular target: Platelet-derived growth factor receptor beta (Homo sapiens, UniProt P09619); assay: Inhibition of recombinant human N-terminal GST-His6-fused PDGFR-beta C-terminal domain (R561 to L1106 residues) expressed in Sf9 insect cells using Poly(Ala,Glu,Lys,Tyr)6:2:5:1 as substrate measured after 60 mins in presence of [gamma-33P]-ATP by scintillation counting method
[20] = molecular target: Vascular endothelial growth factor receptor 2 (Homo sapiens, UniProt P35968); assay: Inhibition of recombinant human N-terminal GST-fused VEGFR2 C-terminal domain (D807 to V1356 residues) expressed in Sf9 insect cells using Poly(Glu:Tyr)4:1 as substrate measured after 60 mins in presence of [gamma-33P]-ATP by scintillation counting method

T1 sequence (P31751 whole entry, the tested form may be a part): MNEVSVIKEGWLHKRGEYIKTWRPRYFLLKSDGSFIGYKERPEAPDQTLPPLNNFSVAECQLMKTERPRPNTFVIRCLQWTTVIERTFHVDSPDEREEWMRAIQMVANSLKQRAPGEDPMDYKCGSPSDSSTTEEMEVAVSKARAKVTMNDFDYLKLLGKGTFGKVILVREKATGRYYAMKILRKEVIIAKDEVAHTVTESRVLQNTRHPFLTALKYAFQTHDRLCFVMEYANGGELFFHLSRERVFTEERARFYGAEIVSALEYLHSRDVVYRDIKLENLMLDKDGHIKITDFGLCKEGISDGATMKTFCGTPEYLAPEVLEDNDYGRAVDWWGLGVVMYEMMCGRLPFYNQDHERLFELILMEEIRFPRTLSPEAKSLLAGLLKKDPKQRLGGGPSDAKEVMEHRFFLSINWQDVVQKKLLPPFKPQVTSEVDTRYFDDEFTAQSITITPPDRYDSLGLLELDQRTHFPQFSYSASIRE
Mitogen-activated protein kinase kinase kinase 1, sequence (Q13233 whole entry, the tested form may be a part): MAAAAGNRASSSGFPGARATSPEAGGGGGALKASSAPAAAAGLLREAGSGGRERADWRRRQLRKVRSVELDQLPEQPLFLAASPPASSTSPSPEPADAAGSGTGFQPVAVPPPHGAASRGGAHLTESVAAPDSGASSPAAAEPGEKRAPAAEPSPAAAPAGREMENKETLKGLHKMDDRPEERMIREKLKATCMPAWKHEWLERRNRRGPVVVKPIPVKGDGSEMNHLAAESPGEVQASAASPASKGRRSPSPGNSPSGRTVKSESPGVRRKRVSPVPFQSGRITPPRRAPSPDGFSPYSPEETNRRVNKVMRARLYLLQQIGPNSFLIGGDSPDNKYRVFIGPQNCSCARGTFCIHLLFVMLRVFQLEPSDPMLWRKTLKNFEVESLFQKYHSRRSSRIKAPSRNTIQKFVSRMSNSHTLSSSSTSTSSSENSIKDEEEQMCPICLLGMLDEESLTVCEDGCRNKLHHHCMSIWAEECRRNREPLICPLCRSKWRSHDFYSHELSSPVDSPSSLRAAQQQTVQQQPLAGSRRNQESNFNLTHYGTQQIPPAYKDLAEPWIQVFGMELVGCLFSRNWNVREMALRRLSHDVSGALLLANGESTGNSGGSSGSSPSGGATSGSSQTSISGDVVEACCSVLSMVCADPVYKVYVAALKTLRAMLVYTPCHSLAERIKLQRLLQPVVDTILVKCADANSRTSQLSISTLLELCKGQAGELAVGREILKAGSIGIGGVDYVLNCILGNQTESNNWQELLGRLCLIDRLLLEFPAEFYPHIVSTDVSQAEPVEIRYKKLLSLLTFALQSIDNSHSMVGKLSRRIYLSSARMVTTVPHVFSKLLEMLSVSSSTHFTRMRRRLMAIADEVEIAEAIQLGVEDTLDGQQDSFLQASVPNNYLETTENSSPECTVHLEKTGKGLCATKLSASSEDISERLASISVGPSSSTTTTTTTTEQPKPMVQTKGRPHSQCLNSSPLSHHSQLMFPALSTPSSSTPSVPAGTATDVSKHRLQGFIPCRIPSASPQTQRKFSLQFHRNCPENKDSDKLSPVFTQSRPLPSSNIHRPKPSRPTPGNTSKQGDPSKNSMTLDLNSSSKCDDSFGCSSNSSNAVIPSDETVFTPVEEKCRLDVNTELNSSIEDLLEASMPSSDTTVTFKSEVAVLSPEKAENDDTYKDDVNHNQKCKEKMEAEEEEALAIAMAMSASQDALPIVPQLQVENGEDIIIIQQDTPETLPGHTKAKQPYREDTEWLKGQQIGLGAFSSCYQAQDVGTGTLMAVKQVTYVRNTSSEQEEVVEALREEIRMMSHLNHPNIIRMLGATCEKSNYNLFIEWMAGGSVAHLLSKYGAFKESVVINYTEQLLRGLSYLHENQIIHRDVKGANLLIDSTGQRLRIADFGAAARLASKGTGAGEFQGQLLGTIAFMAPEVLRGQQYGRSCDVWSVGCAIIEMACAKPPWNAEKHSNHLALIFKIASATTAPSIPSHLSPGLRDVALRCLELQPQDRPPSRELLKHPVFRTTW
Mitogen-activated protein kinase 15, sequence (Q8TD08 whole entry, the tested form may be a part): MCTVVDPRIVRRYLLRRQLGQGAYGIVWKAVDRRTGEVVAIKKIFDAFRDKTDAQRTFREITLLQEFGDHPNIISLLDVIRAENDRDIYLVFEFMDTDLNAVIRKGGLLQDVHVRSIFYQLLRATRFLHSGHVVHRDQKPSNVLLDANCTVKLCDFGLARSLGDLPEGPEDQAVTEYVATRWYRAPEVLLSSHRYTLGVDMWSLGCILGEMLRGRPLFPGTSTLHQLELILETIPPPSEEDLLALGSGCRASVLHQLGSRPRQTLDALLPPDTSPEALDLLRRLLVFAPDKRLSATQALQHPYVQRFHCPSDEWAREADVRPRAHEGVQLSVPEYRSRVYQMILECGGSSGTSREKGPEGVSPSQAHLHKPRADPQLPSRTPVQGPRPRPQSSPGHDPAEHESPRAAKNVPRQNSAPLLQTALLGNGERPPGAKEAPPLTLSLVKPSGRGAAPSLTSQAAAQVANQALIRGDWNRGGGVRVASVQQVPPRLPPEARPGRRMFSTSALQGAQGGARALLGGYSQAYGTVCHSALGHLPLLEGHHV
Fibroblast growth factor receptor 4, sequence (P22455 whole entry, the tested form may be a part): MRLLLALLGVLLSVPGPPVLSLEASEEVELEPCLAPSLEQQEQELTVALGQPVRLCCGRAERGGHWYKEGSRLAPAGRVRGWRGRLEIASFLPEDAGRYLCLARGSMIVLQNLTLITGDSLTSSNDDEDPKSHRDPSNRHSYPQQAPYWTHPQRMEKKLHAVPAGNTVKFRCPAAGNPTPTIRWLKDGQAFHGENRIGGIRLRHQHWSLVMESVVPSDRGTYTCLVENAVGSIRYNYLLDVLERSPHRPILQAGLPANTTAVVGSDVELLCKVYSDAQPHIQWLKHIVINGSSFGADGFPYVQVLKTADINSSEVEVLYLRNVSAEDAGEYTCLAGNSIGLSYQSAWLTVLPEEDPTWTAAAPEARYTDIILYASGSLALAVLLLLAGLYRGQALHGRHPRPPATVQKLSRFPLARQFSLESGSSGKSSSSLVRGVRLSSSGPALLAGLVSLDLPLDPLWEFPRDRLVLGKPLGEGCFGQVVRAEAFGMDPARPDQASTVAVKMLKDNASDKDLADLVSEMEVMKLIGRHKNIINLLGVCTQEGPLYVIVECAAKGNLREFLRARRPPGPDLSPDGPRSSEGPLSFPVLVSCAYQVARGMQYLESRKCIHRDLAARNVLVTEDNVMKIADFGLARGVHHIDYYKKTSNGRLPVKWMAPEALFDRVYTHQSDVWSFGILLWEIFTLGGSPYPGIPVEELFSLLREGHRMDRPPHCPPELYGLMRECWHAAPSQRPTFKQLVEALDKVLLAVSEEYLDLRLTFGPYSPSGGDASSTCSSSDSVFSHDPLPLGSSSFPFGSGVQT
Platelet-derived growth factor receptor alpha, sequence (P16234 whole entry, the tested form may be a part): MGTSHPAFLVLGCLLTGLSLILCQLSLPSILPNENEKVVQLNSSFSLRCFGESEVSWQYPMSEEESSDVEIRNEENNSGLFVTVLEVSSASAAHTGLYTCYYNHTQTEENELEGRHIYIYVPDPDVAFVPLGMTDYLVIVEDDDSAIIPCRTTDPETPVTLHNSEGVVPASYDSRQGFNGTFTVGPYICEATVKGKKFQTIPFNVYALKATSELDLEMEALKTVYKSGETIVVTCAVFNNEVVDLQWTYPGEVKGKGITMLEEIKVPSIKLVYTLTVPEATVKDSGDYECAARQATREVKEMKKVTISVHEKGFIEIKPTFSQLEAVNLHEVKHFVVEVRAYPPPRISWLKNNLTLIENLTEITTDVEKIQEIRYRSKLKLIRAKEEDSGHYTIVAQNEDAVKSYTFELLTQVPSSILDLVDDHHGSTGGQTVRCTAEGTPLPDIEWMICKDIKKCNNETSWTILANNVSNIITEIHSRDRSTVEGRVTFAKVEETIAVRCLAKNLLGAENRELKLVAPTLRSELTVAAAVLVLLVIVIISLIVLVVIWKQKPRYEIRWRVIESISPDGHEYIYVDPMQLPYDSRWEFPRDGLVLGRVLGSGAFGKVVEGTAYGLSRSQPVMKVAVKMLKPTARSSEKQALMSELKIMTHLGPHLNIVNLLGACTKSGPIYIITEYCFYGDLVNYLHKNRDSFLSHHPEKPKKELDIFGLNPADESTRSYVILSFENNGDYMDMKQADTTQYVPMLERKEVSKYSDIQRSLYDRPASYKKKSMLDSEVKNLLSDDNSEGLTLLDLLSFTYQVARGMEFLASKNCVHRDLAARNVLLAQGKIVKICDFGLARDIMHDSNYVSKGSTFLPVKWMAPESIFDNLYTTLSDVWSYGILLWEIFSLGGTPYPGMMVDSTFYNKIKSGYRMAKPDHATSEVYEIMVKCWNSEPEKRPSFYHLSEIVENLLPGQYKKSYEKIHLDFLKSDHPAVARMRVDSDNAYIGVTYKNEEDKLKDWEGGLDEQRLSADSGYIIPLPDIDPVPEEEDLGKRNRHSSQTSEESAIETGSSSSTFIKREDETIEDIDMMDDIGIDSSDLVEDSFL
Dual specificity mitogen-activated protein kinase kinase 2, sequence (P36507 whole entry, the tested form may be a part): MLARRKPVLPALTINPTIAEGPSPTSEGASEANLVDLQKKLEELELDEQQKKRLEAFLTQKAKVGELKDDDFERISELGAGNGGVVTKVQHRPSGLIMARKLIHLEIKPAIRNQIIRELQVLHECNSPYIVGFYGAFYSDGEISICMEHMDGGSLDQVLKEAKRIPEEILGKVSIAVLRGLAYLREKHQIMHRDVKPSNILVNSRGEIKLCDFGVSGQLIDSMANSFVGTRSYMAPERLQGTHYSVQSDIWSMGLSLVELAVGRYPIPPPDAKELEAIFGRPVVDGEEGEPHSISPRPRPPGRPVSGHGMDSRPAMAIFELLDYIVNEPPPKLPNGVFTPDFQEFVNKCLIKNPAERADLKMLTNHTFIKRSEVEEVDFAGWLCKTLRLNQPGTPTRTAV

IC50 [1]: 66 µM
IC50 [2]: 90 µM
IC50 [3]: 11 µM
IC50 [4]: 74 µM
IC50 [5]: > 100 µM
IC50 [8]: 11 µM
IC50 (MCF7): 2.16 µM
IC50 (SRSF protein kinase 1): 7.8 µM
IC50 (Focal adhesion kinase 1): > 100 µM
IC50 [11]: 21 µM
IC50 [13]: > 100 µM
IC50 [16]: 48 µM
IC50 [17]: 8.8 µM
IC50 (Wee1-like protein kinase): 79 µM
IC50 [18]: 18 µM
IC50 [19]: 81 µM
IC50 [20]: 31 µM
SMILES: CN(CCc1ccc(-c2ccccc2)cc1)Cc1cn(C)c2ccc(C(=O)Nc3ccc(F)cc3)cc12
Activity (HeLa [6]): inactive
IC50 [7]: 61 µM
inhibition (HeLa [9]): Active
IC50 (IEC-6 [10]): 6.43 µM
Activity (HeLa [12]): Active
Activity (HeLa [14]): Active
Activity (IEC-6 [15]): Toxic

Reference: ChEMBL document CHEMBL4340507, “Identification of an indol-based multi-target kinase inhibitor through phenotype screening and target fishing using inverse virtual screening approach” (Eur J Med Chem, 2019)
